The text below walks through data of US20100010046A1, “PHARMACEUTICAL FORMULATION FOR PARENTERAL ADMINISTRATION” (IRONWOOD PHARMACEUTICALS, INC., priority 2006, published 2010).

The conditions of data set [1]: room temperature; presence of water (U.S. Pat. No. 5,324,746); cited from earlier work.
In data set [2] the test system is indomethacin-induced rat gastric ulcers. The conditions noted are these: subcutaneous, 50 μg/kg; cited from earlier work.
Data set [3] deals with isolated canine parietal cell preparation. Put plainly: Inhibition of histamine-stimulated acid secretion in an isolated canine parietal cell preparation. It is filed as cell-based. The settings on record: Canis lupus familiaris, read-out: IC50 (nM), concentration required to inhibit 50% of maximal histamine-stimulated acid secretion. The source says: Concentrations required to inhibit 50% of maximal histamine-stimulated acid secretion in an isolated canine parietal cell preparation is shown in Table 1 below.

For the molecule `CCCCC(C)(O)C/C=C/[C@H]1C(O)CC(=O)[C@@H]1CCCCCCC(=O)OC` (stereo partly drawn) [Misoprostol], the chemical stability result in data set [1] is “chemically unstable at room temperature and breaks down in the presence of water”. Also, in data set [2], the reduced lesion formulation entry is on record as “up to 60%”. Moreover, the IC50 in data set [3] is 3.8 nM.
